Experimental data published in patent US11447466B2, “Substituted indole compounds useful as inhibitors of TLR7/8/9” (BRISTOL-MYERS SQUIBB COMPANY, priority 2017, dated 2022).

What was measured:
Format in all cases: cell-based
human TLR7 = target: T1, human TLR7 (Homo sapiens, UniProt Q9NYK1); experiment: TLR7 inhibition reporter assay (HEK-Blue SEAP reporter, gardiquimod stimulation); settings: HEK-Blue cells overexpressing human TLR7, SEAP reporter, gardiquimod 7.5 μM, 22 hour incubation
T1 construct: host or cells: HEK-Blue cells
T1 sequence (Q9NYK1 27-1049): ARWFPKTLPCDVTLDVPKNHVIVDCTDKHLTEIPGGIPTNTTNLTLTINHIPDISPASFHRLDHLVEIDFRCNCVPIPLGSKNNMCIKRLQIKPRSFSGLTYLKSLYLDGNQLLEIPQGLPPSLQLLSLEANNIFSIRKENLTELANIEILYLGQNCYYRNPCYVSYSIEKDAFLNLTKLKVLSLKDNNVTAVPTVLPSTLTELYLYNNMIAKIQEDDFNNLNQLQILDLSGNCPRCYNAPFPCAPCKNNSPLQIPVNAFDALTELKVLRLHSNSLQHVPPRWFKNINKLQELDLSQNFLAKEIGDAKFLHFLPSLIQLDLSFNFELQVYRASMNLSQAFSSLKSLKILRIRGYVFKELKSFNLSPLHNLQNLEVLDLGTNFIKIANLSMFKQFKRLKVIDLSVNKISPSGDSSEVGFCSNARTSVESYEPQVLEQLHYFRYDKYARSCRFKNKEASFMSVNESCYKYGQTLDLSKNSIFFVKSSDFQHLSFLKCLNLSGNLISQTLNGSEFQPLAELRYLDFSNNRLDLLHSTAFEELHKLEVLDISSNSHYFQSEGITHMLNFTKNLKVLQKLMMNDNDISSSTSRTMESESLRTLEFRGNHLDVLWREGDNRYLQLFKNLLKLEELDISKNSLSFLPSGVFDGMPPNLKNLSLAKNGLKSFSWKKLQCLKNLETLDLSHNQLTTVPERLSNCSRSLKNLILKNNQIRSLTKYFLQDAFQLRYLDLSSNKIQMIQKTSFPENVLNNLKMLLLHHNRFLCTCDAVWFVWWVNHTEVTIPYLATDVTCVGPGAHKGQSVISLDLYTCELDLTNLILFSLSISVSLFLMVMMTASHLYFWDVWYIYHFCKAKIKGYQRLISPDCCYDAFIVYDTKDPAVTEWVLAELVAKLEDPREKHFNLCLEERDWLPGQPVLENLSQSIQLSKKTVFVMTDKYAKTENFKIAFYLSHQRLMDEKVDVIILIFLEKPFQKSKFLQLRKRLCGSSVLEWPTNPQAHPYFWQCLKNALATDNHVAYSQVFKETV
Method in brief: (§1)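 HEK-Blue cells overexpressing human TLR7, TLR8 or TLR9 carry a SEAP reporter driven by NF-κB/AP-1 sites. Compounds (0.05 nM–50 μM) were preincubated 30 min at room temperature, then cells were stimulated with gardiquimod 7.5 μM (TLR7), R848 15.9 μM (TLR8) or ODN2006 5 nM (TLR9) for 22 h at 37 °C.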

human TLR8 = target: T2, human TLR8 (Homo sapiens, UniProt Q9NR97); experiment: TLR8 inhibition reporter assay (HEK-Blue SEAP reporter, R848 stimulation); settings: HEK-Blue cells overexpressing human TLR8, SEAP reporter, R848 15.9 μM, 22 hour incubation
T2 construct: host or cells: HEK-Blue cells
T2 sequence (Q9NR97 27-1041): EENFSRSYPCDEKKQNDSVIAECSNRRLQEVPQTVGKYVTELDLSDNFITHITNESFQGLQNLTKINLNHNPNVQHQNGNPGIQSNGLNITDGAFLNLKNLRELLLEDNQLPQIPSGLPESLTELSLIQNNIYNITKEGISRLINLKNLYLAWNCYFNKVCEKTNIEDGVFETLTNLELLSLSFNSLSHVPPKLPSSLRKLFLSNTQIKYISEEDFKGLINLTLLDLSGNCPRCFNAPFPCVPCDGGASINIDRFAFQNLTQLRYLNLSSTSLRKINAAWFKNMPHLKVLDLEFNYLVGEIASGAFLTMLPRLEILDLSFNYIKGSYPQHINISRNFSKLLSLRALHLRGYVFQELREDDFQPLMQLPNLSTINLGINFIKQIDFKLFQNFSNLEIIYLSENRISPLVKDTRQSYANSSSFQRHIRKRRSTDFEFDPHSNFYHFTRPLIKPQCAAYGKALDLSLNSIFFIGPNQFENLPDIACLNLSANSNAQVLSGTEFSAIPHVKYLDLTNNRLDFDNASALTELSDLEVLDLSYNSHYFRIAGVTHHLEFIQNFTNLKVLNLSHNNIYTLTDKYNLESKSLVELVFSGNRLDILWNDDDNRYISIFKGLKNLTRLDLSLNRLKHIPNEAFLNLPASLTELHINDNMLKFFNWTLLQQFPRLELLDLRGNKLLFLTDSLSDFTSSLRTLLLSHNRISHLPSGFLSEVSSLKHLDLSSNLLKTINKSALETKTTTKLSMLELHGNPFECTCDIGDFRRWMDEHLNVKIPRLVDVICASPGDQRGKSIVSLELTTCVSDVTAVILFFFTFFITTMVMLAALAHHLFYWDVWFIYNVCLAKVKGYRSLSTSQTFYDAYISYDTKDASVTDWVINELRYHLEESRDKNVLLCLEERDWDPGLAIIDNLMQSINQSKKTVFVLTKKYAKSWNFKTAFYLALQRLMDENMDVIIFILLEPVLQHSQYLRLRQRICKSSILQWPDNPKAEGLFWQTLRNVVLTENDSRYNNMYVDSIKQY
Method in brief: as §1

human TLR9 = target: T3, human TLR9 (Homo sapiens, UniProt Q9NR96); experiment: TLR9 inhibition reporter assay (HEK-Blue SEAP reporter, ODN2006 stimulation); settings: HEK-Blue cells overexpressing human TLR9, SEAP reporter, ODN2006 5 nM, 22 hour incubation
T3 construct: host or cells: HEK-Blue cells
T3 sequence (Q9NR96 26-1032): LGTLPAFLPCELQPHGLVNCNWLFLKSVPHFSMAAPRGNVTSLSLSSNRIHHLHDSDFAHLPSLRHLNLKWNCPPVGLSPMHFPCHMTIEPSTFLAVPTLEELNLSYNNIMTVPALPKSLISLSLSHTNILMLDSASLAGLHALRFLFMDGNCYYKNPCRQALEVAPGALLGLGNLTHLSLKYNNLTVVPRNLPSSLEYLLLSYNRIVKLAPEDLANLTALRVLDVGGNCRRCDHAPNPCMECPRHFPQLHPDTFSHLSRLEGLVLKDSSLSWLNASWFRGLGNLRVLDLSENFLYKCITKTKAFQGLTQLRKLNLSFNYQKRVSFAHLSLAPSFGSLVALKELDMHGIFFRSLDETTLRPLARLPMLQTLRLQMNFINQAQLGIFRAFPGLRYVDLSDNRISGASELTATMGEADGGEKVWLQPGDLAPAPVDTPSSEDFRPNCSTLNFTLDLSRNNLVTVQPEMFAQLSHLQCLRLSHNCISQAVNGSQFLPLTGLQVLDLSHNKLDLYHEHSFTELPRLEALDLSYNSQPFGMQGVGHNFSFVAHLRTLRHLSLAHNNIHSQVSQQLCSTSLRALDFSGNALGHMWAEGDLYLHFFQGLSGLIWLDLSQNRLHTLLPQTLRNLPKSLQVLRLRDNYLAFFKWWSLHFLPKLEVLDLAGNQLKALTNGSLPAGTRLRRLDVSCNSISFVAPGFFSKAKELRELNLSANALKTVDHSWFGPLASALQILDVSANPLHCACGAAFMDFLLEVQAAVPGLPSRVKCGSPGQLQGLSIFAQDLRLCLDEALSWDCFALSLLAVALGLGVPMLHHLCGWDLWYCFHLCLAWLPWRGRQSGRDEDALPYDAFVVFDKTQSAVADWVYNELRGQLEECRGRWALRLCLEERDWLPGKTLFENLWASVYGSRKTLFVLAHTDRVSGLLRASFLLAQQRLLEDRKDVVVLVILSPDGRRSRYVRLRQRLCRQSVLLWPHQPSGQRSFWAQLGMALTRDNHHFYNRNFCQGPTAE
Method in brief: as §1

SMILES | IC50 (human TLR7) | IC50 (human TLR8) | IC50 (human TLR9)
Cc1cc(-c2[nH]c3ccc(C4CCN(CC(O)C(C)C)CC4)cc3c2C(C)C)cn(C)c1=O (stereo not drawn) [Example 324, 5-(5-(1-(2-hydroxy-3-methylbutyl)piperidin-4-yl)-3-isopropyl-1H-indol-2-yl)-1,3-dimethylpyridin-2(1H)-one] | 2.5 nM | 2.8 nM | 11500 nM
COc1c(C)c(-c2[nH]c3ccc(C4CCN(C(=O)CN(C)C)CC4)cc3c2C(C)C)cn(C)c1=O [Example 276, 5-(5-(1-(dimethylglycyl)piperidin-4-yl)-3-isopropyl-1H-indol-2-yl)-3-methoxy-1,4-dimethylpyridin-2(1H)-one] | 52.2 nM | 80.2 nM | 4760 nM
CCc1cc(-c2[nH]c3ccc(C4CCN(CC(=O)N(C)C)CC4)cc3c2C(C)C)cn(C)c1=O [Example 168, 2-(4-(2-(5-ethyl-1-methyl-6-oxo-1,6-dihydropyridin-3-yl)-3-isopropyl-1H-indol-5-yl)piperidin-1-yl)-N,N-dimethylacetamide] | 7.9 nM | 10.3 nM | 2380 nM
COCCN1CCC(c2ccc3[nH]c(-c4cn(C)c(=O)c(Cl)c4C)c(C(C)C)c3c2)CC1 [Example 95, 3-chloro-5-(3-isopropyl-5-(1-(2-methoxyethyl)piperidin-4-yl)-1H-indol-2-yl)-1,4-dimethylpyridin-2(1H)-one] | 7 nM | 7.8 nM | 6090 nM
Cc1cc(-c2[nH]c3ccc(C4CCN(C5CCOCC5)CC4)cc3c2C(C)C)c(C)n(C)c1=O [Example 210, 5-(3-isopropyl-5-(1-(tetrahydro-2H-pyran-4-yl)piperidin-4-yl)-1H-indol-2-yl)-1,3,6-trimethylpyridin-2(1H)-one] | 24.7 nM | 2.7 nM | 5030 nM
Cc1cc(-c2[nH]c3ccc(C4CCN(CC(=O)N5CC[C@H](O)C5)CC4)cc3c2C(C)C)cn(C)c1=O [Example 119, (S)-5-(5-(1-(2-(3-hydroxypyrrolidin-1-yl)-2-oxoethyl)piperidin-4-yl)-3-isopropyl-1H-indol-2-yl)-1,3-dimethylpyridin-2(1H)-one] | 11.4 nM | 14.9 nM | 1160 nM
CNC(=O)CN1CCC(c2ccc3[nH]c(-c4cn(C)c(=O)c(C#N)c4C)c(C(C)C)c3c2)CC1 [Example 146, 2-(4-(2-(5-cyano-1,4-dimethyl-6-oxo-1,6-dihydropyridin-3-yl)-3-isopropyl-1H-indol-5-yl)piperidin-1-yl)-N-methylacetamide] | 38.8 nM | 4.5 nM | 6990 nM
Cc1cc(-c2[nH]c3ccc(C4CCN(CC(C)(C)O)CC4)cc3c2C(C)C)nn(C)c1=O [Example 311, 6-(5-(1-(2-hydroxy-2-methylpropyl)piperidin-4-yl)-3-isopropyl-1H-indol-2-yl)-2,4-dimethylpyridazin-3(2H)-one] | 17.7 nM | 3.9 nM | 3150 nM
CCCN1CCC(c2ccc3[nH]c(-c4cc(-c5cnc(C)nc5)c(=O)n(C)c4)c(C(C)C)c3c2)CC1 [Example 337, 5-(3-isopropyl-5-(1-propylpiperidin-4-yl)-1H-indol-2-yl)-1-methyl-3-(2-methylpyrimidin-5-yl)pyridin-2(1H)-one] | 1.8 nM | 11.9 nM | 2490 nM
CC(C)c1c(-c2ccc(=O)n(CC(N)=O)c2)[nH]c2ccc(C3CCNCC3)cc12 [Example 49, 2-(5-(3-isopropyl-5-(piperidin-4-yl)-1H-indol-2-yl)-2-oxopyridin-1(2H)-yl)acetamide] | 2610 nM | 2090 nM | ≥ 50000 nM
Cc1nc(-c2[nH]c3ccc(C4CCN(C5CCCOC5)CC4)cc3c2C(C)C)cn(C)c1=O (stereo not drawn) [Example 187, 5-(3-isopropyl-5-(1-(tetrahydro-2H-pyran-3-yl)piperidin-4-yl)-1H-indol-2-yl)-1,3-dimethylpyrazin-2(1H)-one] | 85.4 nM | 30.1 nM | 655 nM
COc1cc(-c2[nH]c3ccc(C4CCN(C5COC5)CC4)cc3c2C(C)C)c(C)n(C)c1=O [Example 217, 5-(3-isopropyl-5-(1-(oxetan-3-yl)piperidin-4-yl)-1H-indol-2-yl)-3-methoxy-1,6-dimethylpyridin-2(1H)-one] | 659 nM | 163 nM | 10900 nM
COCCOCCN1CCC(c2ccc3[nH]c(-c4cn(C)c(=O)c(Cl)c4C)c(C(C)C)c3c2)CC1 [Example 101, 3-chloro-5-(3-isopropyl-5-(1-(2-(2-methoxyethoxy)ethyl)piperidin-4-yl)-1H-indol-2-yl)-1,4-dimethylpyridin-2(1H)-one] | 12.8 nM | 9.3 nM | 4880 nM
CC(C)c1c(-c2cc(-c3cccnc3)c(=O)n(C)c2)[nH]c2ccc(C3CCN(CCO)CC3)cc12 [Example 236, 5-(5-(1-(2-hydroxyethyl)piperidin-4-yl)-3-isopropyl-1H-indol-2-yl)-1-methyl-[3,3′-bipyridin]-2(1H)-one] | 4.6 nM | 9.8 nM | 980 nM
